Results taken from US20060104951A1, “Akt and regulation of RA synovial fibroblast apoptosis” (priority 2004, published 2006).
Like-named read-outs stand apart in the source and are kept apart here.

What was measured:
Akt [1] = molecular target: T1, Akt (Homo sapiens, UniProt P31749); conditions: Cell: HL-60 K562; cited from earlier work
Akt [2] = molecular target: T1, Akt; parameters: many cells; H2O2-treated B cells; conditions: Cell: IL-2 activated T cell; cited from earlier work
[3] = system: rheumatoid arthritis synovial fibroblasts (RASF); experiment: ATPlite-M cytotoxicity assay in RASF; conditions: wortmannin alone, 18 hours
Akt [4] = molecular target: T1, Akt; parameters: many cells; H2O2-treated B cells; conditions: Cell: Many; cited from earlier work
phosphorylated Akt = experiment: Western blot of phosphorylated-Akt in RASF lysates; conditions: TNF-α 10 ng/ml alone
Experimental: The levels of phosphorylated-Akt are determined by Western blot analysis of lysates from RASF and OASF cell lines.
To determine the optimal amount of AdAkt-DN required to inhibit Akt phosphorylation, RASF is transfected with either 50 pfu/cell of AdGFP or with 5 pfu/cell or with 50 pfu/cell of AdAkt-DN respectively for 18 hr. The cells are then stimulated with TNFα (10 ng/ml) for 18 hr.
For evaluation of the phosphorylated form of Akt, the synovial cells are washed twice with ice-cold PBS followed by incubation with 200 μl of cell lysis buffer (20 mmol/L Tris [pH 7.4], 150 mmol/L NaCl, 1 mmol/L EDTA, 1 mmol/L EGTA, 1% Triton, 2.5 mmol/L sodium pyrophosphate, 1 mmol/L β-glycerophosphate, 1 mmol/L Na3VO4, 1 μg/mL leupeptin, and 1 mmol/L PMSF) for 5 min on ice. The cells are then harvested by scraping and sonicated using a Branson Sonicator (3×5 seconds, output control 2, duty cycle 100%) on ice. After centrifugation for 10 min at 20,000 g at 4° C., the protein concentration of the supernatant is determined using the Bio-Rad protein assay kit (Bio-Rad, Hercules, Calif.). […] Phosphorylated Akt is detected using the PhosphoPlus Akt antibody kit (New England Biolabs, Beverly, Mass.).

[5] = system: phosphorylated Akt (Thr308); experiment: Immunohistochemical staining of phosphorylated Akt in primary RASF; conditions: TNF-α 10 ng/ml alone vs PBS, 18 hours
Experimental: To determine if this TNF-α survival signal involves a PI 3-kinase dependent mechanism, RASF and OASF are treated with TNF-α (10 ng/ml), using PBS as a control, in the presence and absence of the PI 3-kinase inhibitor, wortmannin (50 nM). After 18 hours, the synovial fibroblasts are stained using an antibody specific for phosphorylated-Akt.
The in-situ expression of phosphorylated-Akt is determined by staining fixed cells with an antibody specific for Thr308 phosphorylated Akt (New England Biolabs, Beverly, Mass.). Quenching of endogenous peroxidase is performed by incubating tissue sections with 3% H2O2 at RT for 10 min in a humidified chamber. After washing with PBS, tissue sections are incubated with 0.1% trypsin at 37° C. for 10 min to reveal fixed antigen epitopes. Tissue sections are then treated with denaturing solution at 20° C. for 30 min and blocking solution at RT for 10 min followed by incubation with a horseradish peroxidase (HRP) conjugated antibody specific for phosphorylated-Akt antibody (New England Biolabs, Beverly, Mass.). Slides are incubated with DAB staining kit (DAKO) for color development then counterstained with methyl green. At least 5 areas from each specimen are chosen randomly for assessment of the percentage of Akt-positive cells.

Akt [6] = experiment: Akt kinase assay (immunoprecipitated Akt, GSK-3 fusion protein substrate) in OASF; assay type: cell-based, human; conditions: TNF-α 10 ng/ml
Experimental: Active Akt phosphorylates GSK-3 at […].
Akt kinase assay of RA synovial fibroblasts is performed using Akt kinase assay kit according to the protocol provided by manufacturer (New England Biolabs, Beverly, Mass.). Briefly, three hundreds micrograms of total proteins from RA synovial fibroblasts are added into Akt antibody coated beads, incubated at 4° C. for 3 hours followed by washing. Phosphorylation of GSK-3 is used as an indicator of phosphorylated Akt, since Akt negatively regulates GSK-3a/b kinase activity via phosphorylation of GSK-3 at […]. After the kinase reaction, the reaction mixture is electrophoresed on a 12% SDS-PAGE gel and western blotted. The blots are probed with an anti-phospho-GSK-3a/b (Ser219) antibody (rabbit polyclonal IgG, affinity purified).

T1 sequence (P31749 whole entry): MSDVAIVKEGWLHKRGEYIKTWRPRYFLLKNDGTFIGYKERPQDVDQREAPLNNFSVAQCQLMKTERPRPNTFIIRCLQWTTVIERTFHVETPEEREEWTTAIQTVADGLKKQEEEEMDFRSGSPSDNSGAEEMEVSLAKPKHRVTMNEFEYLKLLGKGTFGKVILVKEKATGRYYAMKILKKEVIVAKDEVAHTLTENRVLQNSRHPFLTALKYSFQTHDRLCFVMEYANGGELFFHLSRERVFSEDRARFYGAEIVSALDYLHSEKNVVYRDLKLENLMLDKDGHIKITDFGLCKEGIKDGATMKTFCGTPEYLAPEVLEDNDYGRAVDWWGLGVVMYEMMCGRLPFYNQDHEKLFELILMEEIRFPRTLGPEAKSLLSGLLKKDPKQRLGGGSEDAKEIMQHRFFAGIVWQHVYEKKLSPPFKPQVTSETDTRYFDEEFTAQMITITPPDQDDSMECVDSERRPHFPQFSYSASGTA

Which Action (Akt [1]) does the source give for Cc1ccc(NC(=O)c2ccc(CN3CCN(C)CC3)cc2)cc1Nc1nccc(-c2cccnc2)n1 [CGP57148B] here?
The Action was “Block Akt”.

Which Action (Akt [2]) does the source give for C[S+]([O-])c1ccc(-c2nc(-c3ccncc3)c(-c3ccc(F)cc3)[nH]2)cc1 (centres unmarked) [SB 203580] here?
Its Action is “Block Akt”.

With COC[C@H]1OC(=O)c2coc3c2[C@@]1(C)C1=C(C3=O)[C@@H]2CCC(=O)[C@@]2(C)C[C@H]1OC(C)=O [wortmannin] as the compound, how does the “cytotoxicity (ATPlite)” value [3] read?
The value was “Neither treatment with TNF-α nor wortmannin alone could induce cytotoxicity”.

With “Insulin-like growth factor-1: growth factor known to activate Akt” as the compound, how does the Action (Akt [4]) read?
Its Action is “Activates Akt”.

Which Action (Akt [4]) does the source give for PDGF here?
The Action was “Activates Akt”.

What does the source list for tumor necrosis factor-alpha [TNF-α]?
levels of phosphorylated-Akt (Western blot) (phosphorylated Akt): marked increase; production of phosphorylated Akt (immunohistochemical staining) [5]: greatly enhanced production of phosphorylated Akt; Akt kinase activity (Akt [6]): did not induce Akt kinase activity
